{"source": "paper PMC10928227", "about": "“Assessing biologic/toxicologic effects of extractables from plastic contact materials for advanced therapy manufacturing using cell painting assay and cytotoxicity screening” (Scientific Reports, 2024)", "key": {"[1]": {"tested_on": "U2OS human osteosarcoma cells", "assay": "Cell painting assay (CPA), morphological profiling and cell count", "format": "cell-based", "conditions": "for Induction in CPA / Cell count: U2OS, 20 h; for Induction in CPA: percentage of altered features (579) vs DMSO controls; for Percentage of changed features, AreaShape group: shape of the cells", "method": "Initially, 5 µL U2OS medium were added to each well of a 384-well plate (PerkinElmer CellCarrier-384 Ultra). Subsequently, U2OS cell were seeded with a density of 1600 cells per well in 20 µL medium. The plate was incubated for 10 min at room temperature (RT), followed by an additional 4 h incubation (37 °C, 5% CO2). […] Incubation with compound was performed for 20 h (37 °C, 5% CO2). Subsequently, mitochondria were stained with Mito Tracker Deep Red (Thermo Fisher Scientific, Cat. No. M22426). The Mito Tracker Deep Red stock solution (1 mM) was diluted to a final concentration of 100 nM in prewarmed medium. The medium was removed from the plate leaving 10 µL residual volume and 25 µL of the Mito Tracker solution were added to each well. The plate was incubated for 30 min in darkness (37 °C, 5% CO2). To fix the cells, 7 µl of 18.5% formaldehyde in PBS were added, resulting in a final formaldehyde concentration of 3.7%. Subsequently, the plate was incubated for another 20 min in darkness (RT) and washed three times with 70 µL of PBS (Biotek Washer Elx405). Cells were permeabilized by addition of 25 µL 0.1% Triton X-100 to each well, followed by 15 min incubation (RT) in darkness. The cells were washed three times with PBS leaving a final volume of 10 µL. To each well 25 µL of a staining solution were added, which contains 1% BSA, 5 µL/mL Phalloidin (Alexa594 conjugate, Thermo Fisher Scientific, A12381), 25 µg/ml Concanavalin A (Alexa488 conjugate, Thermo Fisher Scientific, Cat. No. C11252), 5 µg/ml Hoechst 33342 (Sigma, Cat. No. B2261-25 mg), 1.5 µg/ml WGA-Alexa594 conjugate (Thermo Fisher Scientific, Cat. No. W11262) and 1.5 µM SYTO 14 solution (Thermo Fisher Scientific, Cat. No. S7576). The plate is incubated for 30 min (RT) in darkness and washed three times with 70 µL PBS. After the final washing step, the PBS was not aspirated. The plates were sealed and centrifuged for 1 min at 50 × g.\nThe images generated were processed with the CellProfiler package (https://cellprofiler.org/, version 3.0.0) on a computing cluster of the Max Planck Society to extract 1716 cell features per microscope site. The data was further aggregated as medians per well (9 sites → 1 well), then over the three replicates.\nOut of the initial 1716 features, a subset of 579 highly reproducible and robust features was determined using a procedure based on the criteria described by Woehrmann et al.[54] Two biological repeats of one plate containing reference compounds were analysed. For every feature, its full profile over each whole plate was calculated. […] This procedure was performed once and served as the basis for all subsequent analyses.\nThe phenotypic profiles were compiled from the Z-scores of all individual cellular features, where the Z-score is a measure of how far away a data point is from a median value.\nSpecifically, Z-scores of test compounds were calculated relative to the Median of DMSO controls. Thus, the Z-score of a test compound defines how many MADs (Median Absolute Deviations) the measured value is away from the Median of the controls as illustrated by the following formula: Z-score=valuemeas.-MedianControls/MADControls\nThe phenotypic compound profile is then determined as the list of Z-scores of all features for one compound and is visualized via heatmap (examplarily see Fig. 2)."}, "[2]": {"tested_on": "murine mesodermal stem cells (C3H10T1/2)", "assay": "Osteogenesis inhibition assay (OIA), purmorphamine-induced alkaline phosphatase expression", "format": "cell-based", "conditions": "C3H10T1/2, purmorphamine, 96 h, alkaline phosphatase expression, read-out: Osteogenesis inhibition assay IC50", "method": "The osteogenesis inhibition assay was performed as described elsewhere[57]. Briefly, murine mesodermal stem cells (C3H10T1/2) were stimulated with purmorphamine (a Hedgehog agonist) to induce the expression of the osteogenesis marker alkaline phosphatase."}, "CHO DG44 cells": {"tested_on": "CHO DG44 cells", "assay": "Cytotoxicity testing with CHO cells, cell growth spiking experiments (ASTM E3231-19)", "format": "cell-based, Chinese hamster", "conditions": "CHO DG44, serum-free chemically defined medium, 72 h, 50% inhibition of cell growth, read-out: EC50 with CHO cells", "method": "The cell line was adapted to grow in suspension without animal-derived supplements. […] This method determines effective concentrations (EC50) that cause 50% inhibition of cell growth. Data evaluation was carried out according to the method described in ASTM E3231-19, “Standard Guide for Cell Culture Growth Assessment of Single-Use Material[23]”. This test defines best practices using serum-free, chemically-defined cell culture medium to prevent false negative results."}, "[3]": {"conditions": "cited from earlier work"}, "[4]": {"tested_on": "different industrial cell lines", "design": "method as in PMID 34411651, PMID 32535801, PMID 32748552", "conditions": "read-out: EC50 cell growth; cited from earlier work"}, "CHO cells": {"tested_on": "CHO cells", "design": "method as in ref 22 (supplement)", "conditions": "detrimental effect on cell growth; ref 22 (supplement); cited from earlier work"}, "[5]": {"conditions": "cited from earlier work", "remark": "listed apart in the source"}, "[6]": {"design": "method as in ref EURL ECVAM genotoxicity and carcinogencity database, Madia F et al, 2020", "conditions": "scale Mutagenicity I (ECVAM), ref EURL ECVAM genotoxicity and carcinogencity database, Madia F et al, 2020; cited from earlier work"}, "[7]": {"conditions": "biosimilarity of CPA sub-profile to cluster"}, "[8]": {"conditions": "in Vivo, Database Genotoxicity & Carcinogenicity ECVAM, ref EURL ECVAM genotoxicity and carcinogencity database, Madia F et al, 2020"}, "[9]": {"conditions": "in Vivo, Database Genotoxicity OASIS, ref Yu F. Sasaki et. al., 2000, Critical Reviews in Toxicology,30(6),Pp.629-799"}, "[10]": {"conditions": "in Vitro, Database Genotoxicity & Carcinogenicity ECVAM, ref EURL ECVAM genotoxicity and carcinogencity database, Madia F et al, 2020"}}, "note": "“Also recorded” adds a separate entry of the source. Like-named read-outs stand apart in the source and are kept apart here.", "data": [{"smiles": "Cc1cc(C)c(C(=O)P(=O)(c2ccccc2)c2ccccc2)c(C)c1", "note": "[TPO, diphenyl(2,4,6-trimethylbenzoyl)phosphine oxide]", "values": [{"measurement": "Induction in CPA", "setting": "[1]; 30 µM", "result": "11 (30 µM) %"}, {"measurement": "Cell count", "setting": "[1]; 50 µM", "result": "94 (50 µM) % of control"}, {"measurement": "Percentage of changed features, nuclei (Hoechst) channel", "setting": "[1]; Fig. 6", "result": "approx. 5%"}, {"measurement": "Percentage of changed features, AreaShape group", "setting": "[1]; Fig. 6", "result": "~30", "unit": "%"}, {"measurement": "Highest similarity to biological clusters: HDAC", "setting": "[1]; [7]", "result": 77, "unit": "%"}, {"measurement": "Lysosomotropic behavior in CPA", "setting": "[1]; cluster assignment in words, N-Lauryldiethanolamine at 30 µM", "result": "lysosomotropic behavior; also recorded: Weak lysosomotropic"}, {"measurement": "IC50", "setting": "[2]; Mus musculus, C3H 10T1/2", "result": 5, "unit": "µM"}, {"measurement": "EC50", "setting": "CHO DG44 cells; Cricetulus griseus", "result": 4.4, "unit": "µM"}, {"measurement": "Risk based on in vitro genotoxicity data from database (from QSAR-toolbox)", "setting": "[3]; not checked for in vivo relevance, ref QSAR Toolbox 4.5 database", "result": "No alert"}]}, {"smiles": "CC(C)(C)c1ccc(OP(=O)(O)Oc2ccc(C(C)(C)C)cc2C(C)(C)C)c(C(C)(C)C)c1", "note": "[bDtBPP, bis(2,4-di-tert-butylphenyl)phosphate]", "values": [{"measurement": "Cell count", "setting": "[1]; 50 µM", "result": "87 (50 µM) % of control"}, {"measurement": "Induction in CPA", "setting": "[1]; 50 µM", "result": "17 (50 µM) %"}, {"measurement": "Percentage of changed features, AreaShape group", "setting": "[1]; Fig. 6", "result": "approx. 20%"}, {"measurement": "Highest similarity to biological clusters: DNA synthesis", "setting": "[1]; [7]", "result": "DNA synthesis (65%)"}, {"measurement": "Impact on cell growth of U2OS cells", "setting": "[1]; concentrations ≤ 50 µM, in words", "result": "no impact on cell growth"}, {"measurement": "IC50", "setting": "[2]", "result": 6.8, "unit": "µM"}, {"measurement": "EC50", "setting": "CHO DG44 cells", "result": 0.6, "unit": "µM"}, {"measurement": "EC50", "setting": "[4]", "result": "< 1", "unit": "µM"}, {"measurement": "EC50", "setting": "CHO cells", "result": "< 1", "unit": "µM"}]}, {"smiles": "O=C1CCCCCN1", "note": "[105-60-2]", "values": [{"measurement": "Chromosome aberration, in Vivo Mammalian Chromosome Aberration Test", "setting": "[5]; Database Genotoxicity & Carcinogenicity ECVAM, ref EURL ECVAM genotoxicity and carcinogencity database, Madia F et al, 2020", "result": "Negative"}, {"measurement": "Chromosome aberration, Micronucleus Assay", "setting": "[5]; [8]", "result": "Negative"}, {"measurement": "DNA damage and repair, COMET or Alkaline Elution", "setting": "[5]; [8]", "result": "Negative"}, {"measurement": "DNA and protein damage, Liver Micronucleus", "setting": "[5]; in Vivo, Database Genotoxicity OASIS, ref T. Shirotori, M. Miyagawa, Proceeding of the 26th JEMS Annual Meeting, Hatano, 1997, p. 83", "result": "Negative"}, {"measurement": "Chromosome aberration, Micronucleus Assay", "setting": "[5]; [9]", "result": "Negative"}, {"measurement": "DNA damage and repair, Single Cell Gel Electrophoresis (comet) Assay", "setting": "[5]; [9]", "result": "Negative"}, {"measurement": "Genetic Toxicity, unscheduled DNA synthesis (UDS in Vivo)", "setting": "[6]", "result": "Negative"}, {"measurement": "Gene mutation, Bacterial Reverse Mutation Assay (e.g. Ames Test)", "setting": "[3]; Salmonella typhimurium, No Strain Information, in Vitro, Database: Genotoxicity OASIS, ref Mutation Research 584 (2005) 1-256, Kirkland et al.", "result": "Negative"}, {"measurement": "Gene mutation, Bacterial Reverse Mutation Assay (e.g. Ames Test)", "setting": "[3]; Salmonella typhimurium, Strain TA 97, in Vitro, Database: Bacterial mutagenicity ISSSTY, ref CCRIS database,Toxnet databases (Romualdo Benigni)", "result": "Negative"}, {"measurement": "Gene mutation, Bacterial Reverse Mutation Assay (e.g. Ames Test)", "setting": "[3]; Salmonella typhimurium, Strain TA 98, in Vitro, Database: Bacterial mutagenicity ISSSTY, ref CCRIS database,Toxnet databases (Romualdo Benigni)", "result": "Negative"}, {"measurement": "Gene mutation, Bacterial Reverse Mutation Assay (e.g. Ames Test)", "setting": "[3]; Salmonella typhimurium, Strain TA 98, in Vitro, Database: Genotoxicity OASIS, ref P&G", "result": "Negative"}, {"measurement": "Gene mutation, Bacterial Reverse Mutation Assay (e.g. Ames Test)", "setting": "[3]; Salmonella typhimurium, Strain TA 100, in Vitro, Database: Bacterial mutagenicity ISSSTY, ref CCRIS database,Toxnet databases (Romualdo Benigni)", "result": "Negative"}, {"measurement": "Gene mutation, Bacterial Reverse Mutation Assay (e.g. Ames Test)", "setting": "[3]; Salmonella typhimurium, Strain TA 100, in Vitro, Database: Genotoxicity OASIS, ref P&G", "result": "Negative"}, {"measurement": "Gene mutation, Bacterial Reverse Mutation Assay (e.g. Ames Test)", "setting": "[3]; Salmonella typhimurium, Strain TA 102, in Vitro, Database: Bacterial mutagenicity ISSSTY, ref CCRIS database,Toxnet databases (Romualdo Benigni)", "result": "Negative"}, {"measurement": "Gene mutation, Bacterial Reverse Mutation Assay (e.g. Ames Test)", "setting": "[3]; Salmonella typhimurium, Strain TA 1535, in Vitro, Database: Bacterial mutagenicity ISSSTY, ref CCRIS database,Toxnet databases (Romualdo Benigni)", "result": "Negative"}, {"measurement": "Gene mutation, Bacterial Reverse Mutation Assay (e.g. Ames Test)", "setting": "[3]; Salmonella typhimurium, Strain TA 1535, in Vitro, Database: Genotoxicity OASIS, ref P&G", "result": "Negative"}, {"measurement": "Gene mutation, Bacterial Reverse Mutation Assay (e.g. Ames Test)", "setting": "[3]; Salmonella typhimurium, Strain TA 1537, in Vitro, Database: Bacterial mutagenicity ISSSTY, ref CCRIS database,Toxnet databases (Romualdo Benigni)", "result": "Negative"}, {"measurement": "Gene mutation, Bacterial Reverse Mutation Assay (e.g. Ames Test)", "setting": "[3]; Salmonella typhimurium, Strain TA 1537, in Vitro, Database: Genotoxicity OASIS, ref P&G", "result": "Negative"}, {"measurement": "Gene mutation, Bacterial Reverse Mutation Assay (e.g. Ames Test)", "setting": "[3]; Salmonella typhimurium, Strain TA 1538, in Vitro, Database: Bacterial mutagenicity ISSSTY, ref CCRIS database,Toxnet databases (Romualdo Benigni)", "result": "Negative"}, {"measurement": "Chromosome aberration, in Vitro Mammalian Chromosome Aberration Test", "setting": "[3]; in Vitro, Chinese hamster, Chinese Hamster Lung (CHL), Database Genotoxicity OASIS, ref ECHA, Registration dossier", "result": "Positive"}, {"measurement": "Chromosome aberration, in Vitro Mammalian Chromosome Aberration Test", "setting": "[3]; in Vitro, Chinese hamster, Chinese Hamster Lung (CHL), Duration 24÷48 h, Database Genotoxicity OASIS, ref Sofuni, T., Ed. (1998). Data Book of Chromosomal Aberration Test In Vitro, Revised Edition", "result": "Negative"}, {"measurement": "Chromosome aberration, Micronucleus Assay", "setting": "[3]; [10]", "result": "Negative"}, {"measurement": "Chromosome aberration, in Vitro Mammalian Chromosome Aberration Test", "setting": "[3]; [10]", "result": "Negative"}, {"measurement": "DNA damage and repair, COMET or Alkaline Elution", "setting": "[3]; [10]", "result": "Negative"}, {"measurement": "Gene mutation, Bacterial Reverse Mutation Assay (e.g. Ames Test)", "setting": "[3]; [10]", "result": "Negative"}, {"measurement": "Gene mutation, Mammalian Cell Gene Mutation (MLA HPRT)", "setting": "[3]; [10]", "result": "Negative"}, {"measurement": "Gene mutation, Bacterial Reverse Mutation Assay (e.g. Ames Test)", "setting": "[3]; in Vitro, Salmonella typhimurium, No Strain Information, Database Genotoxicity OASIS, ref Journal of Medicinal Chemistry 48 (1), pp. 312-32, 25, Kazius J, McGuire R., Bursi R", "result": "Negative"}, {"measurement": "Gene mutation, Bacterial Reverse Mutation Assay (e.g. Ames Test)", "setting": "[3]; in Vitro, Salmonella typhimurium, Strain TA 97, Database Genotoxicity OASIS, ref P&G", "result": "Negative"}, {"measurement": "Gene mutation, Bacterial Reverse Mutation Assay (e.g. Ames Test)", "setting": "[3]; in Vitro, Salmonella typhimurium, Strain TA 98, Database Genotoxicity OASIS, ref P&G", "result": "Negative"}, {"measurement": "Gene mutation, Bacterial Reverse Mutation Assay (e.g. Ames Test)", "setting": "[3]; in Vitro, Salmonella typhimurium, Strain TA 100, Database Genotoxicity OASIS, ref P&G", "result": "Negative"}, {"measurement": "Gene mutation, Bacterial Reverse Mutation Assay (e.g. Ames Test)", "setting": "[3]; in Vitro, Salmonella typhimurium, Strain TA 102, OECD Guideline 471, Database Genotoxicity OASIS, ref CCRIS database,Toxnet databases", "result": "Negative"}, {"measurement": "Gene mutation, Bacterial Reverse Mutation Assay (e.g. Ames Test)", "setting": "[3]; in Vitro, Salmonella typhimurium, Strain TA 1535, Database Genotoxicity OASIS, ref P&G", "result": "Negative"}, {"measurement": "Gene mutation, Bacterial Reverse Mutation Assay (e.g. Ames Test)", "setting": "[3]; in Vitro, Salmonella typhimurium, Strain TA 1537, Database Genotoxicity OASIS, ref P&G", "result": "Negative"}, {"measurement": "Gene mutation, Bacterial Reverse Mutation Assay (e.g. Ames Test)", "setting": "[3]; in Vitro, Salmonella typhimurium, Strain TA 1538, Database Genotoxicity OASIS, ref P&G", "result": "Negative"}, {"measurement": "Gene mutation, Mammalian Cell Gene Mutation Assay", "setting": "[3]; in Vitro, T-lymphoma Cell Lines, Database Genotoxicity OASIS, ref Mutation Research 584 (2005) 1-256, Kirkland et al.", "result": "Negative"}, {"measurement": "Genetic Toxicity, unscheduled DNA synthesis (UDS in Vitro)", "setting": "[3]; in Vitro, scale Mutagenicity I (ECVAM), ref EURL ECVAM genotoxicity and carcinogencity database, Madia F et al, 2020", "result": "Negative"}]}]}
